Source: PMC4372538, “Advantages of the Phosphatidylserine-Recognizing Peptide PSP1 for Molecular Imaging of Tumor Apoptosis Compared with Annexin V” (PLoS ONE, 2015)
pKd: −log10 of the molar value. “Also recorded” adds a separate entry of the source. Read-outs that look alike come from different tables or passages of the source.

Tests used:
PS liposomes = assay: SPR binding to PS liposomes
Text: To compare the kinetics of annexin V and PSP1 peptide binding to PS liposomes, SPR spectroscopy was employed (Reichert Inc, NY, USA). PC and PS liposomes (0.8:0.2 PC:PS) were generated as previously described and were homogenously purified using a liposome mini-extruder with a 100 nm membrane filter, based on the manufacturer’s protocol (Avanti Polar Lipids). […] Briefly, phytosphingosine was immobilized by activating the carboxymethyl groups on dextran-coated chips (Reichert Life Sciences) through a reaction with N-hydroxysuccinimide (Sigma-Aldrich), followed by covalent bonding of the ligands to the chip surface via amide linkages and blocking of excess activated carboxyls with ethanolamine. The purified PS or PC liposomes were captured on the phytosphingosine layer at a flow rate of 5 μl/min in liposome immobilization buffer (10 mM Tris-HCl (pH 8.0), 100 mM NaCl, and 2 mM CaCl2). To use the PC-immobilized surface as a control, the injected PS or PC liposome volume was adjusted to an immobilization level of approximately 4000±200 RU. Different concentrations of the PSP1 peptide (0.313 to 5 μM) and annexin V (3.13 to 100 nM) in running buffer (10 mM Tris-HCl (pH 8.0), 100 mM NaCl, 2 mM CaCl2, and 62.5 μg/ml BSA) were allowed to flow over the surfaces bound to the immobilized liposomes for 3 min at a rate of 30 μl/min. The sensor surface was regenerated after each association and dissociation cycle by injecting 10 mM EDTA for 20 s, followed by 50 mM NaOH for 10 s. The interaction of the ligand and the analyte was analyzed using Scrubber 2 Biologic software (http://www.biologic.com.au/). The binding kinetics was assessed by determining the association (kon), dissociation (koff), and equilibrium (KD) constants.
The in vitro binding affinity of PSP1 and annexin V for PS was further examined using SPR analysis (Fig. 2). […] We immobilized PS liposomes on the surface of an SPR chip, applied a series of different concentrations of PSP1 or annexin V, and examined the binding kinetics. PS-specific binding was determined by subtracting binding responses to a PC liposome-coated surface from those obtained using a PS liposome-coated […] surface.
Fig 2 In vitro SPR analysis of PSP1 and annexin V binding to PS liposomes. (A) The indicated concentrations of PSP1 were injected onto the liposome-immobilized surface. Responses (RU) from the PC liposome-coated surface (reference) were subtracted from those from the PS:PC (2:8) liposome surface to monitor PS-specific binding. The equilibration binding constant (KD) and the association (Kon) and dissociation (Koff) rate constants were estimated using the Scrubber program. (B) Plots of the RU values of annexin V at the indicated concentrations.

[1] = tested on: apoptotic tumor cells in H460 tumor-bearing mice; assay: in vivo fluorescence imaging of tumors after apoptosis induction; design: species or system BALB/c nude mice; human H460 tumor; conditions: Cy7.5-labeled
Description: Female nude mice (BALB/c nude; body weight, 20±3 g; n = 5) were housed in a specific pathogen-free environment at 22±2°C and 55±5% relative humidity with light. Tumors were generated by subcutaneously injecting H460 cells (5×10^6 cells) into the right shoulder of 6-wk-old female BALB/c nude mice and allowing them to grow for 3 weeks (size of 0.5 to 0.7 cm). For in vivo analysis of tumor targeting, the tumor-bearing mice were either treated or not treated with a single dose of camptothecin (10 mg/kg) 24 hrs prior to intravenous injection of Cy7.5-labeled PSP1, Cy7.5-annexin V or Cy7.5-labeled control peptide into the tail vein under inhalational anesthesia (1% (w/v) isoflurane in 2 L oxygen).
In vivo fluorescence images were taken at different time intervals after peptide injection (10 min, 1 h, 3 h, 6 h, and 12 h) using an eXplore Optix system (ART Advanced Research Technologies Inc., Montreal, Canada), which has excitation/emission wavelengths of 778 nm/805 nm. The obtained images were processed using eXplore Optix OptiView Software and normalized based on the baseline fluorescence, assessed for each mouse prior to peptide injection.
Fig 4 In vivo imaging of tumors after apoptosis induction. (A) Cy7.5-labelled PSP1peptide, control peptide, or annexin V was systematically injected into the tail vein of tumor-bearing nude mice treated with camptothecin 24 hrs before injection. The same amount of annexin V was also injected into non-camptothecin-treated tumor-bearing mice as a control. The homing of the peptides was examined after the indicated times using an optical imaging system. The white dotted circles indicate the tumors. (B) Histological examination of tumor tissues after homing of PSP1 and annexin V, performed under a fluorescence microscope. Tumor cell apoptosis was observed by TUNEL staining.

[2] = tested on: necrotic and nonapoptotic cells with exposed anionic lipids; conditions: under specific physiological or pathological conditions, ref [12], cited from earlier work
Text: (§1) The exposure of phosphatidylserine (PS) on the outer surface of the plasma membrane bilayer, an early biochemical event in apoptosis, is an attractive target for molecular imaging of dying cells. During chemo- and radiotherapy, subsequent necrosis also results in PS exposure due to disruption of the plasma membrane’s integrity. […] The stability and biodistribution of annexin V derivatives depend ...

[3] = calcium-dependent; ref [9],[10]; cited from earlier work
Text: as §1

apoptotic H460 cells [4] = assay: confocal microscopy of binding to apoptotic H460 cells; type: cell-based, human
apoptotic H460 cells [5] = assay: FACS binding to apoptotic H460 cells; type: cell-based, human; conditions: FITC-labeled, etoposide 50 μM 22 hrs, 2, 10, 20, 50 μg/ml, binding buffer 10 mM Hepes pH 7.4, 150 mM NaCl ± 2 mM CaCl2, 4°C, 1 hr
Description: The human lung cancer cell H460, which was obtained from the American Type Culture Collection (ATCC), was maintained in RPMI-1640 media supplemented with 10% heat-inactivated fetal bovine serum (FBS) and penicillin G/streptomycin at 37°C in a humidified atmosphere of 95% air and 5% CO2.
To induce apoptosis of lung tumor cells (H460), the cells (5×10^6 cell) were grown overnight and then treated with etoposide (50 μM) (Sigma) in serum-free media for 22 hrs, followed by washing with phosphate-buffered saline (PBS) and binding buffer (10 mM Hepes (pH 7.4), 150 mM NaCl, and 2 mM CaCl2).
Control peptide (grey); FITC-NSSSVDK.

[6] = PS:PC (2:8) liposomes, PC response subtracted, Tris-HCl pH 8.0, 2 mM CaCl2, Scrubber, value from picture

## annexin V: endogenous 36-kDa human protein that binds to PS with nanomolar affinity; His-tagged, expressed in Escherichia coli BL-21
PS liposomes; PS liposomes, PC liposome response subtracted, Tris-HCl pH 8.0, 2 mM CaCl2, read-out: in vitro binding affinity (equilibrium binding constant)
  pKd: 8.51
PS liposomes; PS:PC (2:8) liposomes on phytosphingosine/CMDH chip, PC liposome response subtracted, 10 mM Tris-HCl pH 8.0, 100 mM NaCl, 2 mM CaCl2, 62.5 μg/ml BSA, PSP1 0.313 to 5 μM, annexin V 3.13 to 100 nM, 3 min, 30 μl/min, Scrubber 2, values from picture
  equilibration binding constant (KD): 3.15 nM
PS liposomes; [6]
  association rate constant (Kon): 1.05±0.76×10^6 M^-1S^-1
  dissociation rate constant (Koff): 1.75±1.28×10^-3 S^-1
[1]; i.v. tail vein, camptothecin 10 mg/kg 24 hrs before, PSP1 10 μg/200 μl (23.16 μM), annexin V 100 μg/200 μl (14.3 μM)
  duration of in vivo fluorescence signal in tumor region: more than 12 hrs
[1]; i.v., 100 μg/200 μl, non-camptothecin-treated tumor-bearing mice
  in vivo tumor homing, non-camptothecin-treated: did not home to the tumor region
[1]; i.v., camptothecin-treated H460 tumor-bearing mice, n = 5, imaging 10 min to 12 h, PSP1 10 μg/200 μl, annexin V and control peptide 100 μg/200 μl
  in vivo tumor homing: weak signals; also recorded: rapidly observed in the tumor region
[2]
  specificity of annexin V for apoptotic cells: not entirely specific for apoptotic cells
[2]; listed as Annexin V
  specificity of annexin V for apoptotic cells: targets necrotic as well as nonapoptotic cells with exposed anionic lipids
[3]
  PS binding affinity of annexin V: binds to PS with nanomolar affinity in a calcium-dependent manner
Apoptotic H460 cells [4]; FITC-labeled, 20 μg/ml, apoptotic H460 (etoposide 50 μM), 4°C, 1 hr
  apoptotic cell-specific signal (confocal microscopy): significantly weaker at the same concentration
Apoptotic H460 cells [4]; same concentration, predicted from KD ratio, molar concentration 1/16th and 0.7 FITC groups/molecule, not observed
  predicted sensitivity of annexin V over PSP1: 150 fold
Apoptotic H460 cells [5]
  binding to apoptotic H460 cells (FACS): specifically bound to apoptotic H460 cells in a concentration-dependent manner
Apoptotic H460 cells [5]; listed as Annexin V
  binding to apoptotic H460 cells (FACS): appeared to exhibit a greater ability to bind to apoptotic cells
